From BindingDB's records for patent US11117900 (Vertex Pharmaceuticals, 2021) come the findings set out here.

In this assay the target is Serine/threonine-protein kinase ATR (Homo sapiens, UniProt Q13535). The experiment in a line: Inhibition Assay. Here is the method:
Compounds were screened for their ability to inhibit ATR kinase using a radioactive-phosphate incorporation assay. Assays were carried out in a mixture of 50 mM Tris/HCl (pH 7.5), 10 mM MgCl2 and 1 mM DTT. Final substrate concentrations were 10 μM [γ-33P]ATP (3 mCi 33P ATP/mmol ATP, Perkin Elmer) and 800 μM target peptide ([…]) (SEQ ID NO:1).Assays were carried out at 25° C. in the presence of 5 nM full-length ATR. An assay stock buffer solution was prepared containing all of the reagents listed above, with the exception of ATP and the test compound of interest. 13.5 μL of the stock solution was placed in a 96 well plate followed by addition of 2 μL of DMSO stock containing serial dilutions of the test compound (typically starting from a final concentration of 15 μM with 3-fold serial dilutions) in duplicate (final DMSO concentration 7%). The plate was pre-incubated for 10 minutes at 25° C. and the reaction initiated by addition of 15 μL [γ-33P]ATP (final concentration 10 μM).The reaction was stopped after 24 hours by the addition of […] containing 2 mM ATP. A multiscreen phosphocellulose filter 96-well plate (Millipore, Cat no. MAPHNOB50) was pretreated with 100 μL 0.2M phosphoric acid prior to the addition of […] of the stopped assay mixture. The plate was washed with 5×2004 0.2M phosphoric acid. […]

Sequence of Serine/threonine-protein kinase ATR (Q13535 whole entry): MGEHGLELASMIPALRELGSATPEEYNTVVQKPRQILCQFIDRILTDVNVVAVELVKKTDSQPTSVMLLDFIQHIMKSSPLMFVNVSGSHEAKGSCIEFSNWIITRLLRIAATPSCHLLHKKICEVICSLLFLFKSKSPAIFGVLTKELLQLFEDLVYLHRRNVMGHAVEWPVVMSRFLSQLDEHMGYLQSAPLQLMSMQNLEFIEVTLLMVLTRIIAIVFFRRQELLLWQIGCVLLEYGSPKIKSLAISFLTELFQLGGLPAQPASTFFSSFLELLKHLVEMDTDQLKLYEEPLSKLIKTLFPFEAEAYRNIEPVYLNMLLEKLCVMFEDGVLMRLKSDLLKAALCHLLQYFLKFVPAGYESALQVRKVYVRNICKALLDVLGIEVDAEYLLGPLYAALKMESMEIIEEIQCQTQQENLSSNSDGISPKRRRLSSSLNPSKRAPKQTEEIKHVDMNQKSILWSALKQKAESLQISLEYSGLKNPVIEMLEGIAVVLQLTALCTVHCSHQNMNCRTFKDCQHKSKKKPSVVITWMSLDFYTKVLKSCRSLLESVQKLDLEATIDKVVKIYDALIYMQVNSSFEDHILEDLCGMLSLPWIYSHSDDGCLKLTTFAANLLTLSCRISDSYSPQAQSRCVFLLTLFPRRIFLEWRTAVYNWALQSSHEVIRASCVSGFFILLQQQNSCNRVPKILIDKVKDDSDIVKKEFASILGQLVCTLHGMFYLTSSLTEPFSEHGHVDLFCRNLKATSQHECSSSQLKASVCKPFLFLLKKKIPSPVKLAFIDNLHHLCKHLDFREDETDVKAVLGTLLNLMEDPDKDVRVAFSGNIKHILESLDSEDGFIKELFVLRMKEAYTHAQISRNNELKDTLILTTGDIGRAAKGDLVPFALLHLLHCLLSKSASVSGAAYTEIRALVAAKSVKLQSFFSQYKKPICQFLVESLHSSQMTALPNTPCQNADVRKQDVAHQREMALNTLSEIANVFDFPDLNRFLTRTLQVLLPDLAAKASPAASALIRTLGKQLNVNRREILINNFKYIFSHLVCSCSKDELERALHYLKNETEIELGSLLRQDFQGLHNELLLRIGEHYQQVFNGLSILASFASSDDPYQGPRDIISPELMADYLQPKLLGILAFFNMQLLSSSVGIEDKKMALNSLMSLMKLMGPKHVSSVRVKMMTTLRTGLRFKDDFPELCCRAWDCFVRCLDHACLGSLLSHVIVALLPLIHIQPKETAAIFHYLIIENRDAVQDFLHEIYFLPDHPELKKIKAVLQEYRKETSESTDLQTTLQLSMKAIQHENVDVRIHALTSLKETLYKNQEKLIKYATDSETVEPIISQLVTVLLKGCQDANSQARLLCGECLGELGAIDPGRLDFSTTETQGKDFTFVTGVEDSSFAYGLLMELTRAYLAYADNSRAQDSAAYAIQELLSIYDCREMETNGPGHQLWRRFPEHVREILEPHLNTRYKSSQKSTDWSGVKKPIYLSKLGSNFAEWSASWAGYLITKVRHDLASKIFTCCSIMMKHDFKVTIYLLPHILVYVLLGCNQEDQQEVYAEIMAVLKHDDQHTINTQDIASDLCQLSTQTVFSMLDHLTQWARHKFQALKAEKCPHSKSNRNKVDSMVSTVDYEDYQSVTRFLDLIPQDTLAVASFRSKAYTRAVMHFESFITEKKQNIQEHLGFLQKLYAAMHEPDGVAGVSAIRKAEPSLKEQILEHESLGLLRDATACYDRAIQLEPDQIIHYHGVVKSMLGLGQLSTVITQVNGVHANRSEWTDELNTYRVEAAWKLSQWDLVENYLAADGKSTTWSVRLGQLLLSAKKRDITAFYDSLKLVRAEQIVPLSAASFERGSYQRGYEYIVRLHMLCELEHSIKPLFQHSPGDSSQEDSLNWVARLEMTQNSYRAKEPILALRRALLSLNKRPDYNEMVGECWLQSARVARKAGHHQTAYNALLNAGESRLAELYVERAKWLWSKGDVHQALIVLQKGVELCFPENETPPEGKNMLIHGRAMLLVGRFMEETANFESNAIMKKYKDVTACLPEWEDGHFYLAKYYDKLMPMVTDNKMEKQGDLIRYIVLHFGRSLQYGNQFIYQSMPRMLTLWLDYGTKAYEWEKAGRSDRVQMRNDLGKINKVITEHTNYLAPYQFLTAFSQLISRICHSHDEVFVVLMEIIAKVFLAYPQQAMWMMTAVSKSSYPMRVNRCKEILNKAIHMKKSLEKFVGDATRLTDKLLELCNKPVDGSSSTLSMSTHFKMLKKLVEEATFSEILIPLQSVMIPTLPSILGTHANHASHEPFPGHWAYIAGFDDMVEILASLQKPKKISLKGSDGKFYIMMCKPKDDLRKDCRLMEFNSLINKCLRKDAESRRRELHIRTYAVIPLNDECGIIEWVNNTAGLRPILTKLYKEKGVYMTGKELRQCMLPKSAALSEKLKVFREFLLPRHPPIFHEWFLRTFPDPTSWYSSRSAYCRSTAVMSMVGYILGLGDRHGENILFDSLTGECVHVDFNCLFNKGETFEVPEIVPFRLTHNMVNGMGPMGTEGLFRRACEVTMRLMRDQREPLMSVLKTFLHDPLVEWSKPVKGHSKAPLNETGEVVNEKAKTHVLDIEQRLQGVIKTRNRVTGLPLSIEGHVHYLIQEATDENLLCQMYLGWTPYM

The term Ki denotes the dissociation constant of the complex between target and ligand, obtained from inhibition or displacement. Low values mean higher affinity, high ones lower affinity. For `C[N+]1([O-])CCCC(c2ccncc2NC(=O)c2c(N)nn3cc(F)cnc23)C1` (stereo unspecified) [US11117900, Compound I-C-9], the Ki result was “in the range around 505 nM”.
